Target: Lysine-specific histone demethylase 1A (Homo sapiens, UniProt O60341)
Experiment: Inhibition of recombinant LSD1 (unknown origin) expressed in Escherichia coli BL21 (DE3) using H3K4me2 peptide as substrate incubated for 30 mins by fluorescence based microplate reader assay

| SMILES | IC50 [µM] |
| --- | --- |
| CN(C)CCCN1c2ccccc2Sc2ccc(C(F)(F)F)cc21 [TRIFLUPROMAZINE] | > 10 |
| CN(C)CCCN1c2ccccc2Sc2ccc(Cl)cc21 [CHLORPROMAZINE] | 5.14 |
| CN1CCN(CCCN2c3ccccc3Sc3ccccc32)CC1 [PERAZINE] | 0.909 |

Source: ChEMBL document CHEMBL5247647, “Phenothiazine-Based LSD1 Inhibitor Promotes T-Cell Killing Response of Gastric Cancer Cells” (J Med Chem, 2023)
